{"source": "paper PMC3795843", "about": "(Journal of molecular biology, 2013)", "key": {"[1]": {"target": "T1, Sub2p (Saccharomyces cerevisiae, UniProt Q07478)", "T1 sequence (Q07478 2-446)": "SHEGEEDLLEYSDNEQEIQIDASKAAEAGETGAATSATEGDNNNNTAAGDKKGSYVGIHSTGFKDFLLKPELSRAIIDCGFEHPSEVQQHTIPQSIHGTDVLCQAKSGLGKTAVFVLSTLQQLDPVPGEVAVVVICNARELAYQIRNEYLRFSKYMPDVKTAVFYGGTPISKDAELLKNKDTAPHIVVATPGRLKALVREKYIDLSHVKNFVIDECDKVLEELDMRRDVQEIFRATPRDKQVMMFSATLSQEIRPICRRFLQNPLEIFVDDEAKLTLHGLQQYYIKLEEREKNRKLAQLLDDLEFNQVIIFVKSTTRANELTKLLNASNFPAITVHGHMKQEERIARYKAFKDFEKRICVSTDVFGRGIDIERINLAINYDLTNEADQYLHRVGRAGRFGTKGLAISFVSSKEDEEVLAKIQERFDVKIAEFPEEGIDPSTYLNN", "experiment": "inhibition of RNA duplex unwinding, native PAGE", "format": "biochemical", "details": "0.5 mM nucleotide, 0.5 mM ATP, 10 mM Tris pH 7.0, 50 mM KCl, 30 °C"}, "[2]": {"target": "T2, Dbp5p (Saccharomyces cerevisiae, UniProt P20449)", "T2 sequence (P20449 1-482)": "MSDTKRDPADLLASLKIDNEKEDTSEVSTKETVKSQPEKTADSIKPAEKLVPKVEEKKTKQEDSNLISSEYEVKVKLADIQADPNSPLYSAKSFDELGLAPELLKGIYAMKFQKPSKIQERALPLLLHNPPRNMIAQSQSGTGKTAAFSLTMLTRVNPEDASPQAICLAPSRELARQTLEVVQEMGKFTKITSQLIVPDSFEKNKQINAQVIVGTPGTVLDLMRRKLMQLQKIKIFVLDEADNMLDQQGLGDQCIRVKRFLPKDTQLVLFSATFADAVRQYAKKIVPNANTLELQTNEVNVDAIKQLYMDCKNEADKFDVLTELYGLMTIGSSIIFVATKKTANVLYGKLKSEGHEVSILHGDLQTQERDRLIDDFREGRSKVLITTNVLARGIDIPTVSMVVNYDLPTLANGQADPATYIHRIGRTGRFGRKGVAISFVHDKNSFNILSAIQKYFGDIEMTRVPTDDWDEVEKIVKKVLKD", "experiment": "inhibition of RNA duplex unwinding, native PAGE", "format": "biochemical", "details": "0.5 mM nucleotide, 0.5 mM ATP, 40 mM Hepes pH 7.5, 30 °C"}, "[3]": {"target": "Ded1p (Saccharomyces cerevisiae, UniProt P06634)", "sequence (P06634 2-604)": "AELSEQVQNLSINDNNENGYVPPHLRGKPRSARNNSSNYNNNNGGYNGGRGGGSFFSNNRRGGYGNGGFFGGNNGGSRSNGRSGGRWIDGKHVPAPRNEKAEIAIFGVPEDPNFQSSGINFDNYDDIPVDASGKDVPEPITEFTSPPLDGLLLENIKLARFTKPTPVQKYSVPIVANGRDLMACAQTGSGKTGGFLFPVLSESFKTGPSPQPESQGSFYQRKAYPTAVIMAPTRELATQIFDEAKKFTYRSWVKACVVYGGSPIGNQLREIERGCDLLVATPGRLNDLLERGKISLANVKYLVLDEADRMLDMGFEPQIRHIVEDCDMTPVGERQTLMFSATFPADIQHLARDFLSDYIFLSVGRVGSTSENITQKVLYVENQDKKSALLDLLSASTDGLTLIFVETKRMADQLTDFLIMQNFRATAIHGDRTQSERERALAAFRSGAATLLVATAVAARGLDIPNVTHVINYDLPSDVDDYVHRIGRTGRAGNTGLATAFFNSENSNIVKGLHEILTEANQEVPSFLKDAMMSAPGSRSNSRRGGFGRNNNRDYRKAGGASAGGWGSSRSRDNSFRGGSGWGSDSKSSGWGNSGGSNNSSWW", "experiment": "fluorescence competition with mantADP", "format": "binding", "details": "no RNA; pH 8.0, 50 mM NaCl, 0.5 mM excess Mg2+, 19 °C"}}, "data": [{"molecule": "Nc1ncnc2c1ncn2[C@@H]1O[C@H](COP(=O)(O)OP(=O)(O)O)[C@@H](O)[C@H]1O", "note": "[ADP]", "values": [{"measurement": "kunw", "setting": "[1]", "value": "Sub2p and Dbp5p showed only significant inhibition by ADP"}, {"measurement": "kunw", "setting": "[2]", "value": "Sub2p and Dbp5p showed only significant inhibition by ADP"}]}, {"molecule": "Nc1ncnc2c1ncn2[C@@H]1O[C@H](COP(=O)(O)OP(=O)(O)OP(=O)(O)O)[C@@H](O)[C@H]1O", "note": "[ATP]", "values": [{"measurement": "K1/2", "setting": "[3]", "value": "Binding of ATP (red), ADP (blue), and AMP (green) to Ded1p in the absence of RNA"}]}]}
